Assays:
[1] = system: glutathione S-transferase mu1 (GSTM1); assay: Expression of genes controlled by Nrf2 in RAW264.7: GSTM1; format: cell-based, mouse; settings: RAW264.7, 25 μM, 20 hours
Description: (§1) A mouse macrophage cell line RAW264.7 was seeded on a φ60 mm dish (9×10^5 cells), 2 ml of a D-MEM medium (Invitrogen) supplemented with 10% fetal bovine serum (HyClone) and penicillin-streptomycin (100 units/ml and 100 μg/ml, respectively; Sigma) was added, and the dish was incubated at 37° C. in an atmosphere of 5% CO2 for 2 days. The medium was replaced with a fresh medium containing individual samples and incubation was continued for another 20 hours. Then, the total RNA was prepared using TRIzol (Invitrogen) and purified using a RNeasy Mini kit (Qiagen) and an RNase-free DNase set (Qiagen). Further, cDNA was synthesized from 5 μg of the purified total RNA using a Thermo Script RT-PCR system (Invitrogen), and the amount of mRNA expression of various genes was determined using a FastStart DNA Master SYBR Green I kit (Roche) and a Light Cycler (Roche).
(§2) The amount of expression of the various genes was corrected by the amount of expression of the housekeeping gene PO and calculated as a relative expression level (n=2, mean±standard deviation). […]

[2] = system: quinone reductase (QR) activity in mouse hepatoma Hepa1c1c7 cells; assay: Induction of quinone reductase (QR) activity; format: cell-based; settings: Hepa1c1c7 cells, 0.6, 1.7, 5, and 15 μM, 48 hours; listed as HI (F)
Description: It has been known that quinone reductase (QR) activity is increased by increasing the expression of NAD(P)H:quinone oxidoreductase (NQO1) by Nrf2 activation (Proc Natl Acad Sci USA. 101, 10446-51 (2004)). Accordingly, isohumulones were allowed to act on mouse hepatoma Hepa1c1c7 cells (available from Dainippon Pharmaceutical Co., Ltd.) to examine whether the QR activity was induced.
The QR activity was measured in accordance with the method described in Analytical Biochemistry 169, 328-336 (1988).
A mouse hepatoma cell line Hepa1c1c7 was seeded on a 96-well plate (7-10×10^3 cells/well), 50 μl each of an α-MEM medium (Invitrogen) supplemented with 10% fetal bovine serum (HyClone) and penicillin-streptomycin (100 units/ml and 100 μg/ml, respectively; Sigma) was added, and the plate was incubated at […] in an atmosphere of 5% CO2 overnight. Next, the culture medium was replaced with a medium containing isomerized hop extract individually at a concentration of 1.9, 5.6, 16.7, or 50 μg/ml, or with a medium containing humulone (H), cohumulone (cH), adhumulone (aH), isohumulone (IH), isohumulone (IcH), or isohumulone (IaH) individually at a concentration of 0.6, 1.7, 5, and 15 μM and the plate was further incubated for 48 hours. Then, the cells in each well were broken using 0.08% digitonin and a 2 mM EDTA solution and absorption at 610 nm was measured by a menadione-formazan system using a microplate reader (Power Wave 200, Bio-Tek Instruments).
The QR inducing activity was calculated as a relative activity setting the activity of cells without addition to be 1 (n=3, mean±standard variation). Sulforaphane (Sul, available from Sigma) was used as a positive control.

[3] = system: mouse macrophage cell line RAW264.7; assay: Suppressive action on cell death by hydrogen peroxide; format: cell-based; settings: RAW264.7, 25 μM, 2 hours
Description: A mouse macrophage cell line RAW264.7 (6×10^4 cells/well) was incubated on a 96-well plate in 100 μl of a D-MEM medium (Invitrogen) containing individual samples, 10% fetal bovine serum (HyClone), and penicillin-streptomycin (100 units/ml and 100 μg/ml, respectively; Sigma) at 37° C. in an atmosphere of 5% CO2 overnight. The samples added were isohumulone (IH(F)) and isohumulone (IcH(G)) at a concentration of 25 μM. Hydrogen peroxide (Wako Pure Chemical Industries) was added hereto at a final concentration of 0.8 or 1.0 mM and incubation was continued for another 2 hours. Then, adsorption at 440 nm was measured using a microplate reader (Power Wave 200, Bio-Tek Instruments) with a cell growth reagent WST-1 (Roche Diagnostics). The cell survival rate for each sample was calculated by setting the value without hydrogen peroxide as 100% (n=2, mean±standard variation). As a positive control, 15dPGJ2 (Cayman Chemical) was used.

[4] = system: glutathione S-transferase pi2 (GSTP2); assay: Expression of genes controlled by Nrf2 in RAW264.7: GSTP2; format: cell-based, mouse; settings: RAW264.7, 25 μM, 20 hours
Description: as §1, §2

CD36 = assay: Expression of genes controlled by Nrf2 in RAW264.7: CD36; format: cell-based, mouse; settings: RAW264.7, 25 μM, 20 hours
Description: as §1, §2

SMILES: CC(C)=CCC(=O)C1(O)C(O)=C(C(=O)CC(C)C)C(=O)C1CC=C(C)C (stereo not drawn) [IH (F), isohumulone]
- expression of GSTM1 [1]: augmented the expression
- QR inducing activity [2]: activity was higher in isohumulones having a higher trans form content
- cell death by hydrogen peroxide (cell survival rate) ([3]; hydrogen peroxide 0.8 mM): suppressed cell death
- cell death by hydrogen peroxide (cell survival rate) ([3]; hydrogen peroxide 1.0 mM): suppressed cell death
- expression of GSTP2 [4]: augmented the expression
- expression of CD36 (CD36): augmented the expression
